From ChEMBL document CHEMBL4257508, “The semi-synthesis, biological evaluation and docking analysis of the oxime, hydrazine and hydrazide derivatives of platensimycin” (Medchemcomm, 2018)
In brackets after ≈: the same amount, converted by molar mass.

What was measured:
Staphylococcus aureus [1] = assay: Antibacterial activity against methicillin-resistant Staphylococcus aureus after 16 hrs by agar dilution method; type: functional
Staphylococcus aureus [2] = assay: Antibacterial activity against methicillin-sensitive Staphylococcus aureus after 16 hrs by agar dilution method; type: functional
Escherichia coli = assay: Antibacterial activity against Escherichia coli after 16 hrs by agar dilution method; type: functional
Staphylococcus aureus [3] = assay: Antibacterial activity against Staphylococcus aureus ATCC 29213 after 16 hrs by agar dilution method; type: functional; conditions: ATCC 29213, 16 h
Klebsiella pneumoniae = assay: Antibacterial activity against Klebsiella pneumoniae after 16 hrs by agar dilution method; type: functional
[4] = Stability of the compound in LB agar after 16 hrs by UPLC analysis; type: physicochemical

Row | Structure (SMILES) | MIC (Staphylococcus aureus [1]) | MIC (Staphylococcus aureus [2]) | MIC (Escherichia coli) | MIC (Staphylococcus aureus [3]) | MIC (Klebsiella pneumoniae) | Stability [4]
1 | C[C@]12C[C@@]34CCC(=O)[C@@](C)(CCC(=O)Nc5c(O)ccc(C(=O)O)c5O)[C@@H]3[C@H](C[C@@H]1C4)O2 | 2 µg/mL (≈ 4.51 µM) | 2 µg/mL (≈ 4.51 µM) | > 64 µg/mL | 2 µg/mL (≈ 4.51 µM) | > 64 µg/mL | –
2 | C[C@]12C[C@@]34C=CC(=O)[C@@](C)(CCC(=O)Nc5c(O)ccc(C(=O)O)c5O)[C@@H]3[C@H](C[C@@H]1C4)O2 | 1 µg/mL (≈ 2.27 µM) | 0.5 µg/mL (≈ 1.13 µM) | – | 0.5 µg/mL (≈ 1.13 µM) | – | –
3 | CC(C)(C)OC(=O)N/N=C1\C=C[C@]23C[C@H]4C[C@H](O[C@@]4(C)C2)[C@H]3[C@]1(C)CCC(=O)Nc1c(O)ccc(C(=O)O)c1O | – | 16 µg/mL (≈ 28.8 µM) | > 64 µg/mL | – | > 64 µg/mL | Stable
4 | C[C@]12C[C@@]34C=C/C(=N\O)[C@@](C)(CCC(=O)Nc5c(O)ccc(C(=O)O)c5O)[C@@H]3[C@H](C[C@@H]1C4)O2 | 32 µg/mL (≈ 70.1 µM) | 16 µg/mL (≈ 35 µM) | > 64 µg/mL | 32 µg/mL (≈ 70.1 µM) | > 64 µg/mL | –
5 | COc1ccc(O)c(C(=O)N/N=C2\C=C[C@]34C[C@H]5C[C@H](O[C@@]5(C)C3)[C@H]4[C@]2(C)CCC(=O)Nc2c(O)ccc(C(=O)O)c2O)c1 | – | 16 µg/mL (≈ 26.4 µM) | > 64 µg/mL | – | > 64 µg/mL | –
6 | C[C@@]1(CCC(=O)Nc2c(O)ccc(C(=O)O)c2O)[C@H](O)C=C[C@]23C[C@H]4C[C@H](O[C@@]4(C)C2)[C@H]31 | – | > 64 µg/mL | > 64 µg/mL | > 64 µg/mL | > 64 µg/mL | –
7 | CCO/N=C1\C=C[C@]23C[C@H]4C[C@H](O[C@@]4(C)C2)[C@H]3[C@]1(C)CCC(=O)Nc1c(O)ccc(C(=O)O)c1O | – | > 64 µg/mL | > 64 µg/mL | > 64 µg/mL | > 64 µg/mL | –
8 | C[C@]12C[C@@]34C=C/C(=N\NC(=O)c5ccccc5)[C@@](C)(CCC(=O)Nc5c(O)ccc(C(=O)O)c5O)[C@@H]3[C@H](C[C@@H]1C4)O2 | – | 32 µg/mL (≈ 57.2 µM) | > 64 µg/mL | 32 µg/mL (≈ 57.2 µM) | > 64 µg/mL | Stable
9 | C[C@]12C[C@]34C[C@H]1C[C@H](O2)[C@H]3[C@](C)(CCC(=O)Nc1c(O)ccc(C(=O)O)c1O)/C(=N/O)C[C@@H]4NO | 16 µg/mL (≈ 32.7 µM) | 16 µg/mL (≈ 32.7 µM) | > 64 µg/mL | 16 µg/mL (≈ 32.7 µM) | > 64 µg/mL | –
10 | C[C@]12C[C@@]34C=C/C(=N\NC(N)=O)[C@@](C)(CCC(=O)Nc5c(O)ccc(C(=O)O)c5O)[C@@H]3[C@H](C[C@@H]1C4)O2 | – | 8 µg/mL (≈ 16 µM) | > 64 µg/mL | – | > 64 µg/mL | –
11 | C[C@]12C[C@@]34C=C/C(=N\NC(=O)Cc5ccccc5)[C@@](C)(CCC(=O)Nc5c(O)ccc(C(=O)O)c5O)[C@@H]3[C@H](C[C@@H]1C4)O2 | – | 8 µg/mL (≈ 13.9 µM) | > 64 µg/mL | 8 µg/mL (≈ 13.9 µM) | > 64 µg/mL | Stable
12 | CO/N=C1\C=C[C@]23C[C@H]4C[C@H](O[C@@]4(C)C2)[C@H]3[C@]1(C)CCC(=O)Nc1c(O)ccc(C(=O)O)c1O | – | > 64 µg/mL | > 64 µg/mL | > 64 µg/mL | > 64 µg/mL | Stable
13 | CC(=O)N/N=C1\C=C[C@]23C[C@H]4C[C@H](O[C@@]4(C)C2)[C@H]3[C@]1(C)CCC(=O)Nc1c(O)ccc(C(=O)O)c1O | – | – | > 64 µg/mL | – | > 64 µg/mL | –
14 | C[C@]12C[C@@]34C=C/C(=N\c5ccccc5)[C@@](C)(CCC(=O)Nc5c(O)ccc(C(=O)O)c5O)[C@@H]3[C@H](C[C@@H]1C4)O2 | 2 µg/mL (≈ 3.87 µM) | 1 µg/mL (≈ 1.94 µM) | > 64 µg/mL | 2 µg/mL (≈ 3.87 µM) | > 64 µg/mL | Stable
15 | CC(C)(C)c1ccc(C(=O)N/N=C2\C=C[C@]34C[C@H]5C[C@H](O[C@@]5(C)C3)[C@H]4[C@]2(C)CCC(=O)Nc2c(O)ccc(C(=O)O)c2O)cc1 | – | 16 µg/mL (≈ 26 µM) | > 64 µg/mL | 32 µg/mL (≈ 52 µM) | > 64 µg/mL | –
16 | C[C@]1(CCC(=O)Nc2c(O)ccc(C(=O)O)c2O)[C@@H]2[C@@H]3C[C@@H]4C[C@@]2(CC[C@@H]1O)C[C@]4(C)O3 | – | > 64 µg/mL | > 64 µg/mL | > 64 µg/mL | > 64 µg/mL | –
17 | C[C@]12C[C@@]34C=C/C(=N\NC(N)=S)[C@@](C)(CCC(=O)Nc5c(O)ccc(C(=O)O)c5O)[C@@H]3[C@H](C[C@@H]1C4)O2 | – | 16 µg/mL (≈ 31.1 µM) | > 64 µg/mL | – | > 64 µg/mL | –
18 | C[C@@]1(CCC(=O)Nc2c(O)ccc(C(=O)O)c2O)[C@H](O)CC[C@]23C[C@H]4C[C@H](O[C@@]4(C)C2)[C@H]31 | – | > 64 µg/mL | > 64 µg/mL | > 64 µg/mL | > 64 µg/mL | –
19 | C[C@]12C[C@@]34C=C/C(=N\NC(=O)c5ccc(O)cc5)[C@@](C)(CCC(=O)Nc5c(O)ccc(C(=O)O)c5O)[C@@H]3[C@H](C[C@@H]1C4)O2 | – | – | > 64 µg/mL | – | > 64 µg/mL | –
20 | C[C@]1(CCC(=O)Nc2c(O)ccc(C(=O)O)c2O)[C@@H]2[C@@H]3C[C@@H]4C[C@@]2(C=C[C@@H]1O)C[C@]4(C)O3 | – | > 64 µg/mL | > 64 µg/mL | > 64 µg/mL | > 64 µg/mL | –
21 | CC(=O)NC[C@H]1CN(c2ccc(N3CCOCC3)c(F)c2)C(=O)O1 [LINEZOLID] | 1 µg/mL (≈ 2.96 µM) | 1 µg/mL (≈ 2.96 µM) | – | 1 µg/mL (≈ 2.96 µM) | – | –
22 | C=C1C[C@@]23C=CC(=O)[C@@](C)(CCC(=O)Nc4c(O)ccc(C(=O)O)c4O)[C@@H]2C[C@@H]1CC3 [PLATENCIN] | 1 µg/mL (≈ 2.35 µM) | 1 µg/mL (≈ 2.35 µM) | – | 1 µg/mL (≈ 2.35 µM) | – | –
